Drawing on patent US6472526B1, “Imidazole derivatives having an inhibitory activity for farnesyl transferase and process for preparation thereof” (LG Chemical Ltd., priority 1997, dated 2002), this text covers IC50 for 15 compounds.

In assay [1] the target is T1, Ras farnesyl transferase (Homo sapiens, UniProt P49354+P49356).
T1 construct: made in house
Nature of the assay: In vitro inhibitory activity for Ras farnesyl transferase, H-Ras substrate. It is filed as biochemical. The conditions noted are these: recombinant farnesyl transferase 4.5 nM, Ras substrate protein 1.5 μM, tritium-farnesylpyrophosphate 0.15 μM, 30 minutes at 37° C.; read-out: H-Ras IC50. The protocol: In the present experiment, Ras farnesyl transferase produced by genetic recombination techniques according to the improved Pompliano's method (Pompliano et al., Biochemistry, 1992, 31, 3800) was used, and Ras substrate (Ras-CVLS) protein described in Korean Patent Appln. No. 97-14409 was used after it has been purified according to the known method (see, Chung et al., Biochimica et Biophysica Acta, 1992, 278, 1129).
The enzyme reaction was performed in 50 μl of 50 mM Sodium HEPES buffer solution containing 25 mM of potassium chloride, 25 mM of magnesium chloride, 10 mM of DTT and 50 μM of zinc chloride. 1.5 μM of Ras substrate protein, 0.15 μM of tritium-farnesylpyrophosphate and 4.5 nM of farnesyl transferase were used.
More specifically, in the initial step, farnesyl transferase was added to the above buffer solution, reaction was maintained for 30 minutes at 37° C. and then the reaction was stopped by adding 1 ml of ethanol solution containing 1M HCl. The formed precipitates were adsorbed to GF/B filter using Hopper harvestor(Hopper #FH 225V) for filter-binding, washed with ethanol, and then radioactivity of the dried filter was measured using LKB β counter. Enzyme titer was measured in the unsaturated state of substrate where the concentrations of Ras substrate protein and farnesyl transferase have quantitative relationship. The compound according to the present invention dissolved in dimethyl sulfoxide (DMSO) was added to the reaction solution in an amount of less than 5% of the total reaction solution, and then the enzyme inhibitory activity thereof was measured. The enzyme inhibitory activity was represented by percentage of the amount of farnesyl incorporated into the Ras substrate protein in the presence of the test compound to that in the absence of the test compound. IC50 of the test compound was defined as the concentration at which 50% of the enzyme activity was inhibited.

Assay [2] has as its target T1, Ras farnesyl transferase. The experiment in a line: In vitro inhibitory activity for Ras farnesyl transferase, K-Ras substrate. It counts as biochemical. The conditions noted are these: in vitro farnesyl transferase assay, K-Ras; read-out: K-Ras IC50.
Assay [3] deals with T2, Ras farnesyl transferase (Rattus norvegicus, UniProt Q02293+Q04631).
T2 construct: endogenous in cells; host or cells: Rat2 fibroblasts transformed with H-Ras or with an H-Ras/K-Ras C-terminus fusion
The experiment in a line: In vivo (cellular) inhibitory activity for Ras farnesyl transferase, Rat2 cell line which expresses C-Harvey-Ras protein. It is filed as cell-based. The conditions noted are these: Rat2 cell line expressing C-Harvey-Ras; concentration inhibiting 50% of farnesyl bonding of Ras protein; read-out: H-Ras CIC50. How it is done: (§1) In the present experiment, Rat2 cell line which expresses C-Harvey-Ras protein having transforming activity and Rat2 cell line (Korean patent application No. 97-14409) which is transformed with fused protein of H-Ras substituted with polybasic lysine domain at C-terminus of K-Ras were used. The experiment was performed by the modified Declue's method (Declue. J. E. et al., Cancer Research, 1991, 51, 712). Hereinafter, the experimental method will be described in more detail.
(§2) 3×10^5 cells of transformed Rat2 fibroblast cell line were sprayed on 60 mm cell cultivation dish and cultivated for 48 hours in a cell incubator at 37° C. and after 50% or more of density was reached, it was treated with the test compounds. The compound according to the present invention dissolved in dimethylsulfoxide (DMSO) was used. 1% concentration of dimethylsulfoxide was used in both control and test groups. After 4 hours from the treatment with the compound, methionine labeled with 150 μCi of radioactive isotope [^35S] per 1 ml of medium was added and after cultivating for 20 hours, the cells were, washed with physiological saline water. The cells were lysed using 1 ml of cold cell lysis buffer solution (50 mM of Sodium HEPES buffer solution containing 5mM of magnesium chloride, 1 mM of DTT, 1% NP 40, 1 mM of EDTA, 1 mM of PMSF, 2 μM of leupeptin, 2 μM of pepstatin A and 2 μM of antipain) and the supernatant wherein the cells were lysed was obtained by high-velocity centrifugation of 12,000 g×5 minutes. The amount of radioisotope in the supernatant was measured and standardized to obtain a quantitative result in immunoprecipitation reaction and then, Y13-259, a monoclonal antibody specifically binding to Ras protein (Furth, M. E. et al., J. Virol, 1982, 43, 294) was added and reacted for 15 hours at 4° C. Protein A(combined with goat anti-murine immunoglobulin antibody)-agarose suspension was added to the solution and reacted for 1 hour at 4° C. and then, to remove the unspecific binding product, immunoprecipitates were washed with a buffer solution (50 mM Tris chloride buffer solution containing 50 mM of sodium chloride, 0.5% of sodium dioxycolate, 0.5% of NP 40 and 0.1% of SDS). The precipitates were added to a buffer solution for electrophoresis and boiled and then, electrophoresis was performed using 13.5% of SDS polyacrylamide gel. After electrophoresis, the gel was fixed and dried. Then, the gel was exposed to X-ray film, developed printed. From the result of the experiment, intensities of band of in combined with or without farnesyl of Ras protein were measured, the concentration of the test compound inhibiting 50% of farnesyl bonding was defined as […], an in vivo Ras farnesyl transferase inhibitory activity.

For assay [4], the target named is T2, Ras farnesyl transferase. Nature of the assay: In vivo (cellular) inhibitory activity for Ras farnesyl transferase, Rat2 cell line transformed with fused protein of H-Ras substituted with polybasic lysine domain at C-terminus of K-Ras. It is filed as cell-based. To be noted: Rat2 cell line transformed with H-Ras fused with polybasic lysine domain of K-Ras C-terminus; concentration inhibiting 50% of farnesyl bonding; read-out: K-Ras CIC50. How it is done:
as §1, §2

As for `CN1CCN(C(=O)c2cn(Cc3cncn3Cc3cccc4ccccc34)cc2-c2cccc3ccccc23)CC1` [Compound 7, 3-(4-Methylpiperazin-1-yl)carbonyl-4-(naphthalen-1-yl)-1-[1-(naphthalen-1-ylmethyl)-1H-imidazol-5-ylmethyl]-1H-pyrrole], the IC50 was 0.6 nM in assay [1], 2.2 nM in assay [2], 25 nM in assay [3] and 10000 to 50000 nM in assay [4].

For `COCCN(C)C(=O)c1cn(Cc2cncn2[C@@H](C)c2ccccc2)cc1-c1cccc2ccccc12` [Compound 11], the IC50 in assay [1] is 4 nM; in assay [2], 8 nM; in assay [3], 25 nM; in assay [4], 10000 to 50000 nM.

As for `C[C@@H](c1ccccc1)n1cncc1Cn1cc(C(=O)N2CCOCC2)c(-c2cccc3ccccc23)c1` [Compound 12, 1-[1-((S)-α-Methylbenzyl)-1H-imidazol-5-ylmethyl]-3-(morpholin-4-yl)carbonyl-4-(naphthalen-1-yl)-1H-pyrrole], the IC50 is 5 nM in assay [1], 6.6 nM in assay [2], 25 nM in assay [3] and 10000 to 50000 nM in assay [4].

As to `C[C@@H](c1ccccc1)n1cncc1Cn1cc(C(=O)N2CCN(C)CC2)c(-c2cccc3ccccc23)c1` [Compound 13, 1-[1-((S)-α-Methylbenzyl)-1H-imidazol-5-ylmethyl]-3-(4-methylpiperazin-1-yl)carbonyl-4-(naphthalen-1-yl)-1H-pyrrole], the IC50 in assay [1] was 0.85 nM; in assay [2], 5 nM; in assay [3], 12.5 nM; in assay [4] it was 10000 to 50000 nM.

Regarding `COCCN(C)C(=O)c1cn(Cc2cncn2CCc2ccccc2)cc1-c1cccc2ccccc12` [Compound 14, 3-[N-(2-Methoxyethyl)-N-methyl]carbamoyl-4-(naphthalen-1-yl)-1-[1-(phenethyl)-1H-imidazol-5-ylmethyl]-1H-pyrrole], the IC50 was 2 nM in assay [1], 5 nM in assay [2], 12.5 nM in assay [3] and 10000 to 50000 nM in assay [4].

Regarding `O=C(c1cn(Cc2cncn2CCc2ccccc2)cc1-c1cccc2ccccc12)N1CCOCC1` [Compound 15], the IC50 in assay [1] is 5 nM; in assay [2] it was 10 nM; in assay [3], 25 nM; in assay [4] it was 10000 to 50000 nM.

On to `CN1CCN(C(=O)c2cn(Cc3cncn3CCc3ccccc3)cc2-c2cccc3ccccc23)CC1` [Compound 16, 3-(4-Methylpiperazin-1-yl)carbonyl-4-(naphthalen-1-yl)-1-[1-(phenethyl)-1H-imidazol-5-ylmethyl)-1H-pyrrole], for which the IC50 in assay [1] was 1.2 nM; in assay [2], 5 nM; in assay [3], 12.5 nM; in assay [4], 10000 to 50000 nM.

With `COCCN(C)C(=O)c1cn(Cc2cncn2CCc2ccccc2OC)cc1-c1cccc2ccccc12` [Compound 17, 3-[N-(2-Methoxyethyl)-N-methyl]carbamoyl-1-[1-(2-methoxy)phenethyl-1H-imidazol-5-yl]methyl-4-(naphthalen-1-yl)-1H-pyrrole], the IC50 in assay [1] is 2 nM; in assay [2] it was 3 nM; in assay [3] it was 25 nM; in assay [4], 10000 to 50000 nM.

In the case of `COc1ccccc1CCn1cncc1Cn1cc(C(=O)N2CCN(C)CC2)c(-c2cccc3ccccc23)c1` [Compound 18, 1-[1-(2-Methoxy)phenethyl-1H-imidazol-5-yl]methyl-3-[4-methylpiperazin-1-yl]carbonyl-4-(naphthalen-1-yl)-1H-pyrrole], the IC50 is 1 nM in assay [1], 2 nM in assay [2], 25 nM in assay [3] and 10000 to 50000 nM in assay [4].

Take `COCCN(C)C(=O)c1cn(Cc2cncn2CCc2ccc(OC)cc2)cc1-c1cccc2ccccc12` [Compound 19, 3-[N-(2-Methoxyethyl)-N-methyl]carbamoyl-1-[1-(4-methoxy)phenethyl-1H-imidazol-5-yl]methyl-4-(naphthalen-1-yl)-1H-pyrrole]: the IC50 in assay [1] is 1 nM; in assay [2] it was 3 nM; in assay [3] it was 20 nM; in assay [4], 10000 to 50000 nM.

On to `COc1ccc(CCn2cncc2Cn2cc(C(=O)N3CCN(C)CC3)c(-c3cccc4ccccc34)c2)cc1` [Compound 20, 1-[1-(4-Methoxy)phenethyl-1H-imidazol-5-yl]methyl-3-[4-methylpiperazin-1-yl]carbonyl-4-(naphthalen-1-yl)-1H-pyrrole], for which the IC50 in assay [1] was 1 nM; in assay [2], 2 nM; in assay [3] it was 20 nM; in assay [4], 10000 to 50000 nM.

In the case of `COCCN(C)C(=O)c1cn(Cc2cncn2CCc2ccccc2F)cc1-c1cccc2ccccc12` [Compound 21, 1-[1-(2-Fluoro)phenethyl-1H-imidazol-5-yl]methyl-3-[N-(2-methoxyethyl)-N-methyl]carbamoyl-4-(naphthalen-1-yl)-1H-pyrrole], the IC50 in assay [1] is 1 nM; in assay [2] it was 1 nM; in assay [3], 21 nM; in assay [4], 10000 to 50000 nM.

On to `CN1CCN(C(=O)c2cn(Cc3cncn3CCc3ccccc3F)cc2-c2cccc3ccccc23)CC1` [Compound 22, 1-[1-(2-Fluoro)phenethyl-1H-imidazol-5-yl]methyl-3-[4-methylpiperazin-1-yl]carbonyl-4-(naphthalen-1-yl)-1H-pyrrole], for which the IC50 was 1 nM in assay [1], 2 nM in assay [2], 20 nM in assay [3] and 10000 to 50000 nM in assay [4].

On to `COCCN(C)C(=O)c1cn(Cc2cncn2CCc2ccccc2Cl)cc1-c1cccc2ccccc12` [Compound 23, 1-[1-(2-Chloro)phenethyl-1H-imidazol-5-yl]methyl-3-[N-(2-methoxyethyl)-N-methyl]carbamoyl-4-(naphthalen-1-yl)-1H-pyrrole], for which the IC50 in assay [1] was 2 nM; in assay [2] it was 2 nM; in assay [3], 23 nM; in assay [4] it was 10000 to 50000 nM.

As for `CN1CCN(C(=O)c2cn(Cc3cncn3CCc3ccccc3Cl)cc2-c2cccc3ccccc23)CC1` [Compound 24, 1-[1-(2-Chloro)phenethyl-1H-imidazol-5-yl]methyl-3-[4-methylpiperazin-1-yl]carbonyl-4-(naphthalen-1-yl)-1H-pyrrole], the IC50 in assay [1] is 2 nM; in assay [2], 3 nM; in assay [3], 25 nM; in assay [4] it was 10000 to 50000 nM.
